Assay: xn = mol fraction of the nth substance listed
Conditions: 101 kPa, Liquid, Vibrating tube method

N#Cc1ccccc1 [benzonitrile] + CCCCCCCCC
mass density [kg/m3]
Conditions | 285.15 K | 288.15 K | 293.15 K | 298.15 K | 303.15 K | 308.15 K | 313.15 K
x1 = 0.0239 | 728.45 | 726.13 | 722.24 | 718.34 | 714.42 | 710.49 | 706.54
x1 = 0.0499 | 732.81 | 730.47 | 726.57 | 722.65 | 718.72 | 714.77 | 710.81
x1 = 0.0989 | 741.4 | 739.05 | 735.11 | 731.16 | 727.2 | 723.22 | 719.23
x1 = 0.1985 | 760.34 | 757.95 | 753.95 | 749.94 | 745.93 | 741.89 | 737.84
x1 = 0.2542 | 771.77 | 769.36 | 765.34 | 761.3 | 757.25 | 753.19 | 749.11
x1 = 0.2998 | 781.58 | 779.16 | 775.11 | 771.05 | 766.97 | 762.89 | 758.79
x1 = 0.4005 | 804.92 | 802.47 | 798.37 | 794.26 | 790.14 | 786 | 781.85
x1 = 0.4966 | 829.64 | 827.16 | 823.01 | 818.85 | 814.68 | 810.5 | 806.31
x1 = 0.5998 | 859.12 | 856.6 | 852.4 | 848.19 | 843.96 | 839.73 | 835.48
x1 = 0.6996 | 891.01 | 888.45 | 884.18 | 879.91 | 875.63 | 871.34 | 867.05
x1 = 0.7999 | 926.93 | 924.34 | 920 | 915.67 | 911.33 | 906.99 | 902.64
x1 = 0.9001 | 967.24 | 964.61 | 960.22 | 955.83 | 951.44 | 947.05 | 942.65
x1 = 0.9497 | 988.96 | 986.32 | 981.91 | 977.49 | 973.08 | 968.67 | 964.25
x1 = 0.9805 | 1003.05 | 1000.4 | 995.97 | 991.55 | 987.13 | 982.7 | 978.27
x1 = 1 | 1012.21 | 1009.55 | 1005.12 | 1000.69 | 996.26 | 991.83 | 987.4

N#Cc1ccccc1 [benzonitrile] + CCCCCCCC
mass density [kg/m3]
Conditions | 283.15 K | 288.15 K | 293.15 K | 298.15 K | 303.15 K | 308.15 K | 313.15 K | 318.15 K
x1 = 0.022 | 714.94 | 710.93 | 706.9 | 702.86 | 698.79 | 694.71 | 690.6 | 686.47
x1 = 0.0576 | 721.95 | 717.92 | 713.87 | 709.81 | 705.72 | 701.62 | 697.49 | 693.34
x1 = 0.102 | 731.07 | 727.01 | 722.94 | 718.85 | 714.74 | 710.61 | 706.47 | 702.29
x1 = 0.1999 | 752.43 | 748.32 | 744.2 | 740.06 | 735.9 | 731.73 | 727.54 | 723.33
x1 = 0.2998 | 776.16 | 772.01 | 767.84 | 763.66 | 759.46 | 755.25 | 751.02 | 746.78
x1 = 0.4001 | 802.02 | 797.83 | 793.63 | 789.41 | 785.18 | 780.93 | 776.67 | 772.39
x1 = 0.4637 | 819.57 | 815.35 | 811.12 | 806.89 | 802.63 | 798.37 | 794.09 | 789.79
x1 = 0.4997 | 829.9 | 825.68 | 821.44 | 817.19 | 812.93 | 808.65 | 804.35 | 800.04
x1 = 0.5004 | 830.12 | 825.9 | 821.66 | 817.41 | 813.14 | 808.86 | 804.56 | 800.25
x1 = 0.6001 | 860.7 | 856.42 | 852.14 | 847.85 | 843.55 | 839.23 | 834.9 | 830.56
x1 = 0.7001 | 894.21 | 889.88 | 885.55 | 881.22 | 876.87 | 872.51 | 868.15 | 863.78
x1 = 0.7998 | 930.65 | 926.27 | 921.9 | 917.52 | 913.13 | 908.74 | 904.34 | 899.94
x1 = 0.9001 | 970.69 | 966.28 | 961.87 | 957.46 | 953.05 | 948.63 | 944.21 | 939.78
x1 = 0.95 | 991.86 | 987.44 | 983.01 | 978.59 | 974.17 | 969.74 | 965.31 | 960.88
x1 = 0.9801 | 1005.05 | 1000.62 | 996.19 | 991.77 | 987.34 | 982.91 | 978.48 | 974.05
x1 = 1 | 1013.99 | 1009.55 | 1005.12 | 1000.69 | 996.26 | 991.83 | 987.4 | 982.96
